# Laboratory results from patent publication US20150133297A1, “NEW ANTIFUNGAL COMPOSITIONS” (DSM IP ASSETS B.V., priority 2012, published 2015).
# Tested on: Botrytis cinerea
# Assay: Treatment of strawberries (Example 5): wounded, inoculated, dipped in antifungal composition
# Format: in vivo
# Conditions: 500 ppm natamycin, 600 ppm fenpropidin or both
# Procedure: Twelve fresh, organic strawberries were used per treatment. Each strawberry was wounded with a 0.5 mm long cut and each wound was inoculated with 10 μl of a Botrytis cinerea suspension containing 1×10^5 of spores/ml. […] A composition without natamycin or fenpropidin was used as control. […] The treated strawberries were incubated in a closed box in the dark at 20° C. for 9 days. During incubation, mould growth on the strawberries was assessed in a twofold manner: […] The expected antifungal activity (E in %) of the combined antifungal composition comprising both active ingredients was calculated according to the Colby equation (Colby, 1967): […] wherein X and Y are the observed antifungal activities (in %) of the individual active ingredients X and Y, respectively.
smiles,measurement,setting,value
"C[C@@H]1C/C=C/C=C/C=C/C=C/[C@H](O[C@@H]2O[C@H](C)[C@@H](O)[C@H](N)[C@@H]2O)C[C@@H]2O[C@](O)(C[C@@H](O)C[C@H]3O[C@@H]3/C=C/C(=O)O1)C[C@H](O)[C@H]2C(=O)O [Natamycin, natamycin]",Number of moulded strawberries/total number of 12 strawberries,"Day 5, 20° C.",11
same,Number of moulded strawberries/total number of 12 strawberries,"Day 6, 20° C.",12
